One series deals with HBV DNA. The experiment in a line: Antiviral activity: inhibition of HBV DNA in supernatant of HepG 2.2.15 cells (dot blot hybridization). It is filed as cell-based. To be noted: Hepatitis B virus, HepG2.2.15, 192 h, 8 days incubation, HB-specific DNA in supernatant, read-out: IC50 (inhibitory effect on HBV DNA). As to the method:
The antiviral effect of the compound of the present invention is determined according to the methods described by Sells, et al (M. A. Sells, M. L. Chen, G. Proc. Natl. Acad. Sci. 1987, 84, 1005-1009) and Korba, et al (B. E. Korba, J. L. Gerin Antiviral Research 1992, 19, 55-70).
(§1) The antiviral test was carried out in a 96-cell microtiter plate. The first column of the plate only contained a culture medium and HepG 2.2.15 cells, as a blank control.
(§2) First, a stock solution ([…]) of a test compound was dissolved in DMSO, and further diluted with a culture medium for growth of HepG 2.2.15 cells. Usually, the compound of the present invention was transferred by suction at a test concentration of 100 μg/ml (the first test concentration) to each cell of the second column of the microtiter plate, and then diluted with the culture medium for growth plus 2% fetal bovine serum (25 μL), by 2 times once, up to 2^10 times at the maximum.
(§3) Then, 225 μL of a suspension of HepG 2.2.15 cells in the culture medium for growth plus 2% fetal bovine serum (5×10^4 cells/ml) was added to each cell of the 96-cell microtiter plate.
(§4) The test mixture was incubated under the conditions of 37° C., 5% CO2 for 4 days. Then, the supernatant was removed by suction, and to each cell 225 μL of a new-prepared culture medium for growth was added. Again, the compound of the present invention was added with a solution of 25 μL. The obtained mixture was further incubated for 4 days.
Thereafter, the supernatant was collected, and sucked in vacuum to a 96-cell dot blot chamber covered by nylon film (used in accordance with the instructions for use provided by the manufacturer).
Determination of Antiviral Activity
After the supernatant was transferred onto the nylon film of the dot blot device (see the contents hereinabove), the supernatant of HepG 2.2.15 cells was denaturated (1.5 M NaCl/0.5 M NaOH), neutralized (3 M NaCl/0.5 M Tris. HCl, pH 7.5) and washed (2×SSC). Then, the filter film was kept at 120° C. for 2-4 hours, whereby DNA was baked on the filter film.
Usually, viral DNA of HepG 2.2.15 cells treated on the nylon film was detected by using a non-radioactive digoxigenin labeled HB-specific DNA probe. Wherein, each time the probe was labeled with digoxigenin, purified and hybridized according to the directions for use given by the manufacturer.
Briefly, pre-hybridization and hybridization were conducted with 5×SSC, 1× blocking agent, 0.1% N-lauroyl sarcosine, 0.02% SDS and 100 μg sperm DNA of black carp. After pre-hybridization at 60° C. for 30 min, a specific hybridization (at 60° C. for 14 hr) was conducted with 20-40 ng/ml digoxigenin labeled denaturalized HBV specific DNA. Then, the film was washed, followed by HBV DNA detection with digoxigenin antibody.
The immunology detection of digoxigenin labeled DNA was conducted according to the directions for use given by the manufacturer.
Briefly speaking, the film was washed and pre-hybridized with a blocking agent (in accordance with the directions for use given by the manufacturer), and then hybridized with an anti-DIG antibody that had been previously coupled onto an alkaline phosphatase for 30 min. After washing, an alkaline phosphatase substrate CSPD was added, and cultured together with the filter for 5 min, and then wrapped in a plastic film, followed by further culturing at 37° C. for 15 min. The filter was exposed to X-ray, and the chemical luminous signal (culturing for 10 min to 2 hr according to the signal strength) of HB-specific DNA on the film was detected, whereby a half inhibitory concentration (IC50) was calculated.
The half inhibitory concentration (IC50) refers to the concentration of the compound of the present invention which reduces the HB-specific band by 50% as compared with the untreated sample.

In another series the test system is HepG 2.2.15 cells. The experiment in a line: Cytotoxicity in HepG 2.2.15 cells (cell morphology under microscope after 8 days, Reed&Muench). It is filed as cell-based. The note with it: pathological change of cells after 8 days. As to the method: as §1, §2, §3, §4
Prior to collection of the supernatant for determination of the antiviral effect, the change in cytotoxicity of HepG 2.2.15 cells was investigated by using optical microscopic technique or biochemical detection method (e.g., Alamar Blue staining or Trypan Blue staining).
Determination of Cytotoxicity
The substance-induced change in cytotoxicity in HepG 2.2.15 cells or in inhibition of the cells could be determined by using, e.g., optical microscopic technique, and expressed by the change of cell morphology. Such substance-induced changes, e.g., cell lysis, cavity formation or change in cell morphology, in HepG 2.2.15 cells were apparent as compared to the untreated cells.
Taking the observed pathological change of cells as index, the pathological change of cells was observed under microscope after 8 days, a complete destroy being indicated as 4; 75% being indicated as 3; 50% being indicated as 2; 25% being indicated as 1; and no pathological change being indicated as 0. The average extents of pathological change of cells and the inhibition percentages at various concentrations were calculated. According to Reed&Muench method, a half toxic concentration (TC50) and a maximum non-toxic concentration (TC0) were calculated.
TC50 refers to the concentration of the compound of the present invention when 50% of cells have a similar morphology to the corresponding cells as a control.

The values below come from patent US8168642B2, “Dihydropyrimidine compounds and their uses in preparation of medicaments for treating and preventing antiviral diseases” (Beijing Molecule Science and Technology Co., Ltd., priority 2006, dated 2012).

SMILES strings stand for the structures. Some results are limits rather than exact numbers.

Regarding `COC(=O)C1=C(C)NC(c2c(F)cccc2F)=NC1c1ccc(F)cc1Cl` (stereo not drawn) [Example 55, methyl 2-(2,6-difluorophenyl)-4-(2-chloro-4-fluorophenyl)-6-methyl-1,4-dihydro-pyrimidin-5-carboxylate], the melting point (in general, the temperature of the solid-liquid transition) fell in the range of 126 to 128 °C. The concentration for half-maximal inhibition (IC50) (as a rule, the midpoint of a concentration-inhibition curve) with HBV DNA is 4010 nM. Also, the TD50 in the series on HepG 2.2.15 cells was 60.84 µM.
Taken in the same sequence, the figures for `CCOC(=O)C1=C(C)NC(c2c(F)cccc2F)=NC1c1ccc(F)cc1Cl` (stereo not drawn) [Example 56, ethyl 2-(2,6-difluorophenyl)-4-(2-chloro-4-fluorophenyl)-6-methyl-1,4-dihydro-pyrimidin-5-carboxylate] were 163 to 165 °C, 2030 nM and 117.50 µM.
The like results for `CCOC(=O)C1=C(C)NC(c2c(F)cc(F)cc2F)=NC1c1ccc(F)cc1Cl` (stereo not drawn) [Example 58, ethyl 2-(2,4,6-trifluorophenyl)-4-(2-chloro-4-fluorophenyl)-6-methyl-1,4-dihydro-pyrimidin-5-carboxylate] were, in that order, 184 to 186 °C, 2600 nM and 32.50 µM.
The like results for `COC(=O)C1=C(C)NC(c2c(F)cc(F)cc2F)=NC1c1ccc(F)cc1Cl` (stereo not drawn) [Example 59, methyl 2-(2,4,6-trifluorophenyl)-4-(2-chloro-4-fluorophenyl)-6-methyl-1,4-dihydro-pyrimidin-5-carboxylate] were, in that order, 112 to 114 °C, 3390 nM and over 30.30 µM.
`CCOC(=O)C1=C(C)NC(c2nccn2C)=NC1c1ccc(F)cc1Cl` (stereo not drawn) [Example 49, ethyl 2-(N-methyl-1H-imidazol-2-yl)-4-(2-chloro-4-fluorophenyl)-6-methyl-1,4-dihydro-pyrimidin-5-carboxylate] displayed a melting point of 166 to 167 °C. Further, in the series on HBV DNA, the 50% inhibitory concentration (IC50) came out at 270 nM. Also, in the series on HepG 2.2.15 cells, the TD50 amounted to 38.83 µM.
Taken in the same sequence, the figures for `CCOC(=O)C1=C(C)NC(c2nccn2C)=NC1c1ccc(F)cc1` (stereo not drawn) [Example 53, ethyl 2-(N-methyl-1H-imidazol-2-yl)-4-(4-fluorophenyl)-6-methyl-1,4-dihydro-pyrimidin-5-carboxylate] were 134 to 136 °C, 10200 nM and 281.14 µM.
The like results for `CCOC(=O)C1=C(C)NC(c2nccn2Cc2ccccc2)=NC1c1ccc(F)cc1` (stereo not drawn) [Example 51, ethyl 2-(N-benzyl-1H-imidazol-2-yl)-4-(4-fluorophenyl)-6-methyl-1,4-dihydro-pyrimidin-5-carboxylate] were, in that order, 162 to 164 °C, 6650 nM and 36.87 µM.
`CCOC(=O)C1=C(C)NC(c2sc(C)nc2C)=NC1c1ccc(F)cc1Cl` (stereo not drawn) [Example 40, ethyl 2-(2,4-dimethylthiazol-5-yl)-4-(2-chloro-4-fluorophenyl)-6-methyl-1,4-dihydro-pyrimidin-5-carboxylate] returned a melting point of 117 to 119 °C. Also, the 50% inhibitory concentration (IC50) in the series on HBV DNA worked out at 2590 nM. In the series with HepG 2.2.15 cells, this compound gave a TD50 of 157.42 µM.
As for `CCOC(=O)C1=C(C)NC(c2cncs2)=NC1c1ccc(F)cc1Cl` (stereo not drawn) [Example 42, ethyl 2-(thiazol-5-yl)-4-(2-chloro-4-fluorophenyl)-6-methyl-1,4-dihydro-pyrimidin-5-carboxylate], the melting point lay in the range of 121 to 125 °C. The concentration for half-maximal inhibition (IC50) in the series on HBV DNA was found to be 3610 nM. For the same compound, the TD50 in the series with HepG 2.2.15 cells was over 32.90 µM.
The like results for `COC(=O)C1=C(C)NC(c2sc(C)nc2C)=NC1c1ccc(F)cc1Cl` (stereo not drawn) [Example 39, methyl 2-(2,4-dimethylthiazol-5-yl)-4-(2-chloro-4-fluorophenyl)-6-methyl-1,4-dihydro-pyrimidin-5-carboxylate] were, in that order, 116 to 118 °C, 3200 nM and 165.90 µM.
Taken in the same sequence, the figures for `CCOC(=O)C1=C(C)NC(c2cnc(N)s2)=NC1c1ccc(F)cc1Cl` (stereo not drawn) [Example 44, ethyl 2-(2-aminothiazol-5-yl)-4-(2-chloro-4-fluorophenyl)-6-methyl-1,4-dihydro-pyrimidin-5-carboxylate] were 132 to 135 °C, 2690 nM and 22.56 µM.
In turn, `CCOC(=O)C1=C(C)NC(c2scnc2C)=NC1c1ccc(F)cc1Cl` (stereo not drawn) [Example 38, ethyl 2-(4-methylthiazol-5-yl)-4-(2-chloro-4-fluorophenyl)-6-methyl-1,4-dihydro-pyrimidin-5-carboxylate] had a melting point of 134 to 139 °C. Further, the IC50 in the series on HBV DNA came to 2220 nM. The TD50 in the series with HepG 2.2.15 cells was 54.33 µM.
